Results from patent US12605404B2, “Synthetic cellular membrane chemical ionophore delivery system comprising hexa-aqua ligand compositions” (priority 2021, dated 2026).

Test system: Staphylococcus aureus (MRSA)
Assay: Broth Microdilution (CLSI-BMD), non-biofilm, 10 MRSA isolates
Assay type: cell-based
Description: A non-biofilm antimicrobial assay using the broth microdilution-based sensitivity method was completed at the University of Debrecen, Hungary. […] A percentage solution calculation established that twice the amount of vancomycin was needed to create the same 50% turbidity reduction in MRSA when tested in comparison to ZC-1.

CN[C@H](CC(C)C)C(=O)N[C@H]1C(=O)N[C@@H](CC(N)=O)C(=O)N[C@H]2C(=O)N[C@H]3C(=O)N[C@H](C(=O)N[C@H](C(=O)O)c4cc(O)cc(O)c4-c4cc3ccc4O)[C@H](O)c3ccc(c(Cl)c3)Oc3cc2cc(c3O[C@@H]2O[C@H](CO)[C@@H](O)[C@H](O)[C@H]2O[C@H]2C[C@](C)(N)[C@H](O)[C@H](C)O2)Oc2ccc(cc2Cl)[C@H]1O [Vancomycin]
MIC values, range (control, 10 MRSA isolates): 4 to 16 µg/mL | amount needed for the same 50% turbidity reduction in MRSA, in comparison to ZC-1 (percentage solution calculation): twice
